Reference: PubChem BioAssay (NCI)
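96-well plates; 48 h exposure; 5 concentrations. Endpoints by linear interpolation between flanking doses. Not reached: highest tested concentration assigned. TGI denotes the concentration required for complete inhibition of growth.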

Experiments:
Assay in all cases: inhibition of tumour cell growth, NCI panel, 48 h
LOX IMVI melanoma = system: LOX IMVI melanoma
LXFL 529 NSCLC = system: LXFL 529 NSCLC
SNB-78 CNS = system: SNB-78 CNS
HCC-2998 colon = system: HCC-2998 colon
HCT-116 colon = system: HCT-116 colon
OVCAR-4 ovarian = system: OVCAR-4 ovarian
M14 melanoma = system: M14 melanoma
RXF-631 renal = system: RXF-631 renal
HCT-15 colon = system: HCT-15 colon
HOP-18 NSCLC = system: HOP-18 NSCLC
UACC-257 melanoma = system: UACC-257 melanoma
M19-MEL melanoma = system: M19-MEL melanoma
DMS 114 small cell lung = system: DMS 114 small cell lung
HOP-62 NSCLC = system: HOP-62 NSCLC
NCI-H460 lung = system: NCI-H460 lung
KM12 colon = system: KM12 colon
786-0 renal = system: 786-0 renal
HOP-92 NSCLC = system: HOP-92 NSCLC
UACC-62 melanoma = system: UACC-62 melanoma
CAKI-1 renal = system: CAKI-1 renal
U251 CNS = system: U251 CNS
A498 renal = system: A498 renal
DLD-1 colon = system: DLD-1 colon
OVCAR-5 ovarian = system: OVCAR-5 ovarian
SNB-19 CNS = system: SNB-19 CNS
A549 NSCLC = system: A549 NSCLC
UO-31 renal = system: UO-31 renal
MALME-3M melanoma = system: MALME-3M melanoma
SW-620 colon = system: SW-620 colon
OVCAR-8 ovarian = system: OVCAR-8 ovarian
TK-10 renal = system: TK-10 renal
SNB-75 CNS = system: SNB-75 CNS
SN12C renal = system: SN12C renal
RPMI-8226 leukemia = system: RPMI-8226 leukemia
COLO 205 colon = system: COLO 205 colon
SF-268 CNS = system: SF-268 CNS
SF-539 CNS = system: SF-539 CNS
KM20L2 colon = system: KM20L2 colon
IGROV1 ovarian = system: IGROV1 ovarian
RXF 393 renal = system: RXF 393 renal
NCI-H226 lung = system: NCI-H226 lung
NCI-H23 lung = system: NCI-H23 lung
SF-295 CNS = system: SF-295 CNS
SK-OV-3 ovarian = system: SK-OV-3 ovarian
SK-MEL-28 melanoma = system: SK-MEL-28 melanoma
OVCAR-3 ovarian = system: OVCAR-3 ovarian
DMS 273 small cell lung = system: DMS 273 small cell lung
ACHN renal = system: ACHN renal
SK-MEL-2 melanoma = system: SK-MEL-2 melanoma
XF 498 CNS = system: XF 498 CNS
EKVX NSCLC = system: EKVX NSCLC
HT29 colon = system: HT29 colon
SR leukemia = system: SR leukemia
MOLT-4 leukemia = system: MOLT-4 leukemia
HL-60(TB) leukemia = system: HL-60(TB) leukemia
NCI-H522 lung = system: NCI-H522 lung
SK-MEL-5 melanoma = system: SK-MEL-5 melanoma
K-562 leukemia = system: K-562 leukemia
CCRF-CEM leukemia = system: CCRF-CEM leukemia

## O=C(CC1(O)C(=O)Nc2c(Cl)ccc(Cl)c21)c1ccc(Cl)cc1 (stereo not given)
LOX IMVI melanoma
  TGI: 37.3 µM
LXFL 529 NSCLC
  TGI: 88.9 µM
SNB-78 CNS
  TGI: > 100 µM
HCC-2998 colon
  TGI: 71 µM
HCT-116 colon
  TGI: 70.6 µM
OVCAR-4 ovarian
  TGI: 41.4 µM
M14 melanoma
  TGI: 69.1 µM
RXF-631 renal
  TGI: 64.3 µM
HCT-15 colon
  TGI: > 100 µM
HOP-18 NSCLC
  TGI: > 100 µM
UACC-257 melanoma
  TGI: 94.7 µM
M19-MEL melanoma
  TGI: 33.3 µM
DMS 114 small cell lung
  TGI: 49.2 µM
HOP-62 NSCLC
  TGI: > 100 µM
NCI-H460 lung
  TGI: 61.9 µM
KM12 colon
  TGI: 78 µM
786-0 renal
  TGI: 32.1 µM
HOP-92 NSCLC
  TGI: 93.9 µM
UACC-62 melanoma
  TGI: 48.9 µM
CAKI-1 renal
  TGI: > 100 µM
U251 CNS
  TGI: 84.5 µM
A498 renal
  TGI: 82.5 µM
DLD-1 colon
  TGI: > 100 µM
OVCAR-5 ovarian
  TGI: > 100 µM
SNB-19 CNS
  TGI: > 100 µM
A549 NSCLC
  TGI: > 100 µM
UO-31 renal
  TGI: > 100 µM
MALME-3M melanoma
  TGI: 71.8 µM
SW-620 colon
  TGI: > 100 µM
OVCAR-8 ovarian
  TGI: 42.1 µM
TK-10 renal
  TGI: > 100 µM
SNB-75 CNS
  TGI: 64.9 µM
SN12C renal
  TGI: 34.1 µM
RPMI-8226 leukemia
  TGI: 55.1 µM
COLO 205 colon
  TGI: 32.8 µM
SF-268 CNS
  TGI: 94 µM
SF-539 CNS
  TGI: 50.6 µM
KM20L2 colon
  TGI: > 100 µM
IGROV1 ovarian
  TGI: 57.7 µM
RXF 393 renal
  TGI: 56.8 µM
NCI-H226 lung
  TGI: > 100 µM
NCI-H23 lung
  TGI: 46.5 µM
SF-295 CNS
  TGI: 83.4 µM
SK-OV-3 ovarian
  TGI: 90.9 µM
SK-MEL-28 melanoma
  TGI: > 100 µM
OVCAR-3 ovarian
  TGI: 47.4 µM
DMS 273 small cell lung
  TGI: 73.5 µM
ACHN renal
  TGI: 38.7 µM
SK-MEL-2 melanoma
  TGI: 86.4 µM
XF 498 CNS
  TGI: 39.9 µM
EKVX NSCLC
  TGI: > 100 µM
HT29 colon
  TGI: 73.2 µM

## COc1cc(Nc2nc3cc(C)ccc3nc2-c2ccccc2)cc(OC)c1OC
LOX IMVI melanoma
  TGI: > 100 µM
LXFL 529 NSCLC
  TGI: > 100 µM
SR leukemia
  TGI: 69.9 µM
HCC-2998 colon
  TGI: 44.2 µM
MOLT-4 leukemia
  TGI: 76.6 µM
HCT-116 colon
  TGI: 45.2 µM
OVCAR-4 ovarian
  TGI: > 100 µM
M14 melanoma
  TGI: > 100 µM
HCT-15 colon
  TGI: 48.7 µM
HOP-18 NSCLC
  TGI: 73.1 µM
UACC-257 melanoma
  TGI: > 100 µM
M19-MEL melanoma
  TGI: 71 µM
DMS 114 small cell lung
  TGI: 31.5 µM
NCI-H460 lung
  TGI: 40 µM
KM12 colon
  TGI: > 100 µM
786-0 renal
  TGI: 33.9 µM
HOP-92 NSCLC
  TGI: > 100 µM
UACC-62 melanoma
  TGI: 63.6 µM
CAKI-1 renal
  TGI: > 100 µM
HL-60(TB) leukemia
  TGI: 54.5 µM
U251 CNS
  TGI: > 100 µM
NCI-H522 lung
  TGI: 90.6 µM
A498 renal
  TGI: > 100 µM
OVCAR-5 ovarian
  TGI: > 100 µM
SNB-19 CNS
  TGI: > 100 µM
A549 NSCLC
  TGI: > 100 µM
UO-31 renal
  TGI: 77.7 µM
MALME-3M melanoma
  TGI: 56.8 µM
SW-620 colon
  TGI: > 100 µM
OVCAR-8 ovarian
  TGI: > 100 µM
TK-10 renal
  TGI: > 100 µM
SNB-75 CNS
  TGI: > 100 µM
SN12C renal
  TGI: > 100 µM
COLO 205 colon
  TGI: 43.7 µM
SF-268 CNS
  TGI: > 100 µM
KM20L2 colon
  TGI: > 100 µM
IGROV1 ovarian
  TGI: > 100 µM
NCI-H23 lung
  TGI: 57 µM
SF-295 CNS
  TGI: 56 µM
SK-OV-3 ovarian
  TGI: > 100 µM
SK-MEL-28 melanoma
  TGI: 55.1 µM
OVCAR-3 ovarian
  TGI: 41.8 µM
SK-MEL-5 melanoma
  TGI: 35.1 µM
DMS 273 small cell lung
  TGI: 49.6 µM
ACHN renal
  TGI: > 100 µM
SK-MEL-2 melanoma
  TGI: 45.3 µM
XF 498 CNS
  TGI: 42.1 µM
K-562 leukemia
  TGI: > 100 µM
EKVX NSCLC
  TGI: > 100 µM
HT29 colon
  TGI: 33.7 µM
CCRF-CEM leukemia
  TGI: > 100 µM

## COc1ccc2cc3n(c(=O)c2c1)CCc1c-3cc(OC)c(OC)c1OC
LXFL 529 NSCLC
  TGI: > 100 µM
SR leukemia
  TGI: > 100 µM
SNB-78 CNS
  TGI: > 100 µM
HCC-2998 colon
  TGI: > 100 µM
MOLT-4 leukemia
  TGI: > 100 µM
HCT-116 colon
  TGI: > 100 µM
OVCAR-4 ovarian
  TGI: > 100 µM
M14 melanoma
  TGI: > 100 µM
HCT-15 colon
  TGI: > 100 µM
HOP-18 NSCLC
  TGI: > 100 µM
UACC-257 melanoma
  TGI: > 100 µM
M19-MEL melanoma
  TGI: > 100 µM
DMS 114 small cell lung
  TGI: > 100 µM
HOP-62 NSCLC
  TGI: > 100 µM
786-0 renal
  TGI: > 100 µM
HOP-92 NSCLC
  TGI: > 100 µM
UACC-62 melanoma
  TGI: > 100 µM
CAKI-1 renal
  TGI: > 100 µM
HL-60(TB) leukemia
  TGI: > 100 µM
U251 CNS
  TGI: > 100 µM
NCI-H522 lung
  TGI: > 100 µM
DLD-1 colon
  TGI: > 100 µM
OVCAR-5 ovarian
  TGI: > 100 µM
SNB-19 CNS
  TGI: > 100 µM
A549 NSCLC
  TGI: > 100 µM
UO-31 renal
  TGI: > 100 µM
MALME-3M melanoma
  TGI: > 100 µM
SW-620 colon
  TGI: > 100 µM
OVCAR-8 ovarian
  TGI: > 100 µM
TK-10 renal
  TGI: > 100 µM
SNB-75 CNS
  TGI: 98.6 µM
SN12C renal
  TGI: > 100 µM
RPMI-8226 leukemia
  TGI: > 100 µM
COLO 205 colon
  TGI: > 100 µM
SF-268 CNS
  TGI: > 100 µM
SF-539 CNS
  TGI: > 100 µM
KM20L2 colon
  TGI: > 100 µM
IGROV1 ovarian
  TGI: > 100 µM
NCI-H226 lung
  TGI: > 100 µM
NCI-H23 lung
  TGI: > 100 µM
SF-295 CNS
  TGI: > 100 µM
SK-OV-3 ovarian
  TGI: > 100 µM
SK-MEL-28 melanoma
  TGI: > 100 µM
OVCAR-3 ovarian
  TGI: > 100 µM
SK-MEL-5 melanoma
  TGI: > 100 µM
DMS 273 small cell lung
  TGI: > 100 µM
ACHN renal
  TGI: > 100 µM
SK-MEL-2 melanoma
  TGI: > 100 µM
XF 498 CNS
  TGI: > 100 µM
K-562 leukemia
  TGI: > 100 µM
EKVX NSCLC
  TGI: > 100 µM
HT29 colon
  TGI: > 100 µM
CCRF-CEM leukemia
  TGI: > 100 µM

## CC1=N/C(=C\c2ccc(C)cc2)C(=O)O1
LXFL 529 NSCLC
  TGI: > 100 µM
SR leukemia
  TGI: > 100 µM
SNB-78 CNS
  TGI: > 100 µM
HCC-2998 colon
  TGI: > 100 µM
MOLT-4 leukemia
  TGI: > 100 µM
OVCAR-4 ovarian
  TGI: > 100 µM
M14 melanoma
  TGI: > 100 µM
HCT-15 colon
  TGI: > 100 µM
M19-MEL melanoma
  TGI: > 100 µM
KM12 colon
  TGI: > 100 µM
HOP-92 NSCLC
  TGI: > 100 µM
UACC-62 melanoma
  TGI: > 100 µM
CAKI-1 renal
  TGI: > 100 µM
U251 CNS
  TGI: > 100 µM
NCI-H522 lung
  TGI: > 100 µM
DLD-1 colon
  TGI: > 100 µM
OVCAR-5 ovarian
  TGI: > 100 µM
SNB-19 CNS
  TGI: > 100 µM
UO-31 renal
  TGI: > 100 µM
MALME-3M melanoma
  TGI: > 100 µM
SW-620 colon
  TGI: > 100 µM
OVCAR-8 ovarian
  TGI: > 100 µM
TK-10 renal
  TGI: > 100 µM
SN12C renal
  TGI: > 100 µM
COLO 205 colon
  TGI: > 100 µM
KM20L2 colon
  TGI: > 100 µM
IGROV1 ovarian
  TGI: > 100 µM
RXF 393 renal
  TGI: > 100 µM
NCI-H23 lung
  TGI: > 100 µM
SF-295 CNS
  TGI: > 100 µM
SK-OV-3 ovarian
  TGI: > 100 µM
SK-MEL-28 melanoma
  TGI: > 100 µM
OVCAR-3 ovarian
  TGI: > 100 µM
SK-MEL-5 melanoma
  TGI: > 100 µM
SK-MEL-2 melanoma
  TGI: > 100 µM
XF 498 CNS
  TGI: > 100 µM
K-562 leukemia
  TGI: > 100 µM
HT29 colon
  TGI: > 100 µM
CCRF-CEM leukemia
  TGI: > 100 µM
